Laboratory results reported in ChEMBL document CHEMBL1201862, “PubChem BioAssay data set” (2004).
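Compound exposure: 48 hours, 5 concentrations, 96-well plates. The concentration for 50% growth inhibition is given as GI50.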 Activity calls are given as the source filed them. No stated cut-off is given here; in the data, active = GI50 up to about 1.1 µM and inactive = higher.

Assays:
Assay in all cases: DTP human tumour cell line panel, 48 h
786-0 = test system: 786-0
A498 = test system: A498
A549 = test system: A549
ACHN = test system: ACHN
BT-549 = test system: BT-549
CAKI-1 = test system: CAKI-1
CCRF-CEM = test system: CCRF-CEM
COLO 205 = test system: COLO 205
DU-145 = test system: DU-145
EKVX = test system: EKVX
HCC 2998 = test system: HCC 2998
HCT-116 = test system: HCT-116
HCT-15 = test system: HCT-15
HL-60 = test system: HL-60
HOP-62 = test system: HOP-62
HT-29 = test system: HT-29
Hs-578T = test system: Hs-578T
IGROV-1 = test system: IGROV-1
K562 = test system: K562
KM12 = test system: KM12
LOX IMVI = test system: LOX IMVI
M14 = test system: M14
MCF7 = test system: MCF7
MDA-MB-231 = test system: MDA-MB-231
MDA-MB-435 = test system: MDA-MB-435
MDA-N = test system: MDA-N
MOLT-4 = test system: MOLT-4
Malme-3M = test system: Malme-3M
NCI-H226 = test system: NCI-H226
NCI-H23 = test system: NCI-H23
NCI-H460 = test system: NCI-H460
NCI-H522 = test system: NCI-H522
NCI/ADR-RES = test system: NCI/ADR-RES
OVCAR-3 = test system: OVCAR-3
OVCAR-4 = test system: OVCAR-4
OVCAR-5 = test system: OVCAR-5
OVCAR-8 = test system: OVCAR-8
PC-3 = test system: PC-3
RPMI-8226 = test system: RPMI-8226
RXF 393 = test system: RXF 393
SF-268 = test system: SF-268
SF-295 = test system: SF-295
SF-539 = test system: SF-539
SK-MEL-28 = test system: SK-MEL-28
SK-MEL-2 = test system: SK-MEL-2
SK-MEL-5 = test system: SK-MEL-5
SK-OV-3 = test system: SK-OV-3
SN12C = test system: SN12C
SNB-19 = test system: SNB-19
SR = test system: SR
SW-620 = test system: SW-620
T47D = test system: T47D
TK-10 = test system: TK-10
U-251 = test system: U-251
UACC-257 = test system: UACC-257
UACC-62 = test system: UACC-62
HOP-92 = test system: HOP-92
SNB-75 = test system: SNB-75
UO-31 = test system: UO-31

COc1cc2c(cc1OC)C(=O)N(NC1=NCCN1)C2=O
GI50 (786-0): > 100 µM (inactive) | GI50 (A498): > 100 µM (inactive) | GI50 (A549): > 100 µM (inactive) | GI50 (ACHN): > 100 µM (inactive) | GI50 (BT-549): > 100 µM (inactive) | GI50 (CAKI-1): > 100 µM (inactive) | GI50 (CCRF-CEM): > 100 µM (inactive) | GI50 (COLO 205): > 100 µM (inactive) | GI50 (DU-145): > 100 µM (inactive) | GI50 (EKVX): > 100 µM (inactive) | GI50 (HCC 2998): > 100 µM (inactive) | GI50 (HCT-116): > 100 µM (inactive) | GI50 (HCT-15): > 100 µM | GI50 (HL-60): > 100 µM (inactive) | GI50 (HOP-62): > 100 µM (inactive) | GI50 (HT-29): > 100 µM (inactive) | GI50 (Hs-578T): > 100 µM (inactive) | GI50 (IGROV-1): > 100 µM (inactive) | GI50 (K562): > 100 µM (inactive) | GI50 (KM12): > 100 µM (inactive) | GI50 (LOX IMVI): > 100 µM (inactive) | GI50 (M14): > 100 µM (inactive) | GI50 (MCF7): > 100 µM (inactive) | GI50 (MDA-MB-231): > 100 µM (inactive) | GI50 (MDA-MB-435): > 100 µM (inactive) | GI50 (MDA-N): > 100 µM (inactive) | GI50 (MOLT-4): > 100 µM (inactive) | GI50 (Malme-3M): > 100 µM (inactive) | GI50 (NCI-H226): > 100 µM (inactive) | GI50 (NCI-H23): > 100 µM (inactive) | GI50 (NCI-H460): > 100 µM (inactive) | GI50 (NCI-H522): > 100 µM (inactive) | GI50 (NCI/ADR-RES): > 100 µM (inactive) | GI50 (OVCAR-3): > 100 µM (inactive) | GI50 (OVCAR-4): > 100 µM (inactive) | GI50 (OVCAR-5): > 100 µM (inactive) | GI50 (OVCAR-8): > 100 µM (inactive) | GI50 (PC-3): > 100 µM (inactive) | GI50 (RPMI-8226): > 100 µM (inactive) | GI50 (RXF 393): > 100 µM (inactive) | GI50 (SF-268): > 100 µM (inactive) | GI50 (SF-295): > 100 µM (inactive) | GI50 (SF-539): > 100 µM (inactive) | GI50 (SK-MEL-28): > 100 µM (inactive) | GI50 (SK-MEL-2): > 100 µM (inactive) | GI50 (SK-MEL-5): > 100 µM (inactive) | GI50 (SK-OV-3): > 100 µM (inactive) | GI50 (SN12C): > 100 µM (inactive) | GI50 (SNB-19): > 100 µM (inactive) | GI50 (SR): 63 µM (inactive) | GI50 (SW-620): > 100 µM (inactive) | GI50 (T47D): > 100 µM (inactive) | GI50 (TK-10): > 100 µM (inactive) | GI50 (U-251): > 100 µM (inactive) | GI50 (UACC-257): > 100 µM (inactive) | GI50 (UACC-62): > 100 µM (inactive)

COc1ccc2c(Cc3c4ccccc4cc4ccccc34)cncc2c1O
GI50 (786-0): 4.21 µM (inactive) | GI50 (A498): 3.99 µM (inactive) | GI50 (A549): 3.44 µM (inactive) | GI50 (ACHN): 2.14 µM (inactive) | GI50 (BT-549): 5.69 µM (inactive) | GI50 (CAKI-1): 4.15 µM (inactive) | GI50 (CCRF-CEM): 0.36 µM (active) | GI50 (COLO 205): 17.7 µM (inactive) | GI50 (DU-145): 2.77 µM (inactive) | GI50 (EKVX): 8.22 µM (inactive) | GI50 (HCT-116): 1.48 µM (inactive) | GI50 (HCT-15): 1.15 µM | GI50 (HL-60): 1.87 µM (inactive) | GI50 (HOP-62): 4.11 µM (inactive) | GI50 (HOP-92): 1.81 µM (inactive) | GI50 (HT-29): 14.2 µM (inactive) | GI50 (Hs-578T): 1.58 µM (inactive) | GI50 (IGROV-1): 2.92 µM (inactive) | GI50 (K562): 0.655 µM (active) | GI50 (KM12): 1.93 µM (inactive) | GI50 (LOX IMVI): 0.394 µM (active) | GI50 (M14): 2.26 µM (inactive) | GI50 (MCF7): 0.638 µM (active) | GI50 (MDA-MB-231): 2.51 µM (inactive) | GI50 (MDA-MB-435): 0.239 µM (active) | GI50 (MDA-N): 0.404 µM (active) | GI50 (MOLT-4): 2.68 µM (inactive) | GI50 (Malme-3M): 5.86 µM (inactive) | GI50 (NCI-H226): 3.27 µM (inactive) | GI50 (NCI-H23): 2.37 µM (inactive) | GI50 (NCI-H460): 1.45 µM (inactive) | GI50 (NCI-H522): 0.698 µM (active) | GI50 (NCI/ADR-RES): 0.67 µM (active) | GI50 (OVCAR-3): 1.98 µM (inactive) | GI50 (OVCAR-4): 5.37 µM (inactive) | GI50 (OVCAR-5): 13.5 µM (inactive) | GI50 (OVCAR-8): 1.1 µM (active) | GI50 (PC-3): 5.14 µM (inactive) | GI50 (RPMI-8226): 1.85 µM (inactive) | GI50 (RXF 393): 3.4 µM (inactive) | GI50 (SF-268): 3.79 µM (inactive) | GI50 (SF-295): 1.55 µM (inactive) | GI50 (SF-539): 0.245 µM (active) | GI50 (SK-MEL-28): 14.1 µM (inactive) | GI50 (SK-MEL-2): 2.87 µM (inactive) | GI50 (SK-MEL-5): 0.658 µM (active) | GI50 (SK-OV-3): 2.96 µM (inactive) | GI50 (SN12C): 5.01 µM (inactive) | GI50 (SNB-19): 2.08 µM (inactive) | GI50 (SNB-75): 3.9 µM (inactive) | GI50 (SR): 0.21 µM (active) | GI50 (SW-620): 0.857 µM (active) | GI50 (T47D): 17.2 µM (inactive) | GI50 (TK-10): 3.94 µM (inactive) | GI50 (U-251): 1.45 µM (inactive) | GI50 (UACC-257): 2.32 µM (inactive) | GI50 (UACC-62): 2.9 µM (inactive) | GI50 (UO-31): 4.4 µM (inactive)
